Source: patent publication US8389509B2, “Substituted pyrazole compounds” (Bristol-Myers Squibb Company, priority 2009, dated 2013)
pEC50, pIC50: −log10 of the molar value. Where a name gives a salt, the structure may show the parent alone.

How the values were obtained:
S1P1 [1] = molecular target: T1, S1P1 (Homo sapiens, UniProt P21453); experiment: Method B: Receptor [35S] GTPγS SPA Binding Assay, S1P1; type: biochemical; conditions: for pEC50: Method B (SPA), S1P1 transfected CHO cell membranes; for GTPγS S1P3/S1P1 (Method B): ratio of S1P3 EC50 to S1P1 EC50, Method B
T1 construct: expressed in transfected cells; host or cells: CHO cells
Procedure: (§1) Method B: Receptor [^35S] GTPγS SPA Binding Assays
(§2) Membranes prepared from S1P1 or S1P3 transfected CHO cells (2 μg protein) were incubated in 96-well white plates (CORNING® 3693) with test compounds diluted in DMSO, in 50 μl of reaction mixture containing 7.5 μA WGA-PVT beads (20 mg/ml), and 5 μM GDP, 20 mM HEPES pH 7.4, 100 mM NaCl, 1 mM EDTA, 5 mM MgCl2, 10 μg/ml saponin, 0.1% BSA, and 1 μM leupeptin. The assay was initiated with the addition of […] of 0.2 nM [^35S]-GTPγS (1250 Ci/mmol; NEN) in assay buffer. After 90 min incubation at room temperature, spin the plate at 1000 rpm for 5 min. The bound radionuclides were measured at TOPCOUNT®, expressed as % response relative to S1P (1 μM) activation. Data was analyzed using the four parameter logistic equation in Excel. The four parameters in the equation, Y=A+((B−A)/(1+((EC50/X)^D))), are described as following: A is the Y value (agonist activity) at the bottom plateau; B is the Y value at the top plateau; EC50 is the X value (agonist concentration) when the response is halfway between bottom and top; D is Hill coefficient. Curves were not generated for compounds having Ymax values were below 50%.
(§3) Compounds of the present invention and Comparative Compound A were tested in the Receptor [^35S] GTPγS Binding Assays (Method A) and Receptor [^35S] In some instances, the value is an average of multiple experiments where N is the number of experiments conducted that provided satisfactory dose response curves. When more than one batch of an example was tested, the value presented is from a batch which allowed a comparison of GTPγS S1P1 and GTPγS S1P3 in which the most number of experiments were performed. Preferably, the same batch was examined in Method A and Method B. Data was not averaged across different batches of an example compound.

S1P3 [2] = molecular target: T2, S1P3 (Homo sapiens, UniProt Q99500); experiment: Method B: Receptor [35S] GTPγS SPA Binding Assay, S1P3; type: biochemical; design: expressed in transfected cells; host or cells: CHO cells; conditions: S1P3 transfected CHO cell membranes
Procedure: as §1, §2, §3

S1P1 [3] = molecular target: T1, S1P1; experiment: Method A: Receptor [35S] GTPγS Binding Assay, S1P1; type: biochemical; conditions: for pEC50: Method A, S1P1/CHO cell membranes; for GTPγS S1P3/S1P1 (Method A): ratio of S1P3 EC50 to S1P1 EC50, Method A
Procedure: (§4) Method A: Receptor [35S] GTPγS Binding Assays
(§5) Compounds were loaded in a 384 FALCON® v-bottom plate (0.5 μl/well in a 3-fold dilution). Membranes prepared from S1P1/CHO cells or EDG3-Gal5-bla HEK293T cells were added to the compound plate (40 μl/well, final protein 3 μg/well) with MULTIDROP®. [^35S]GTP (1250 Ci/mmol, Perkin Elmer) was diluted in assay buffer: 20 mM HEPES, pH7.5, 10 mM MgCl2, 150 mM NaCl, 1 mM EGTA, 1 mM DTT, 10 μM GDP, 0.1% fatty acid free BSA, and 10 μg/ml Saponin to 0.4 nM. 40 μl of the [^35S] GTP solution was added to the compound plate with a final concentration of 0.2 nM. The reaction was kept at room temperature for 45 min. At the end of incubation, all the mixtures in the compound plate were transferred to a 384 well FB filter plates via GPCR robot system. The filter plate was washed with water 4 times by using the modified manifold Embla plate washer and dried at 60° C. for 45 min. 30 μA of MicroScint 20 scintillation fluid was added to each well for counting at Packard TOPCOUNT®. EC50 is defined as the agonist concentration that corresponds to 50% of the Ymax (maximal response) obtained for each individual compound tested.
as §3

S1P1 [4] = molecular target: T1, S1P1; experiment: S1P1 Binding Assay (33P-S1P competition, CHO membranes); conditions: membranes of CHO cells expressing human S1P1, 33P-S1P ligand; read-out: S1P1 B IC50
Procedure: Membranes were prepared from CHO cells expressing human S1P1. Cells were dissociated in buffer containing 20 mM HEPES, pH 7.5, 50 mM NaCl, 2 mM EDTA and Protease Inhibitor cocktail (Roche), and disrupted on ice using the Polytron homogenizer. The homogenate was centrifuged at 20,000 rpm (48,000 g) and the supernatant was discarded. The membrane pellets were resuspended in buffer containing 50 mM HEPES, pH 7.5, 100 mM NaCl, 1 mM MgCl2, 2 mM EDTA and stored in aliquots at −80° C. after protein concentration determination.
Membranes (2 μg/well) and 0.03 nM final concentration of ^33P-S1P ligand (1 mCi/ml, American Radiolabeled Chemicals) were added to the compound plates. Binding was performed for 60 min at room temperature, terminated by collecting the membranes onto GF/B filter plates, and radioactivity was measured by TOPCOUNT®. The competition data of the test compounds over a range of concentrations was plotted as percentage inhibition of radioligand specific binding. The IC50 is defined as the concentration of competing ligand needed to reduce specific binding by 50%.
Compounds of the present invention and Comparative Compound A were tested in the S1P1 binding assay described hereinabove and the results rounded to two digits, shown in Table A were obtained. In some instances, the value is an average of multiple experiments where N is the number of experiments conducted that provided satisfactory dose response curves. When more than one batch of an example was tested, the value presented is from the batch which allowed a comparison of GTPγS S1P1 and GTPγS S1P3 in Method A (Data shown in Table B). Data was not averaged across different batches of an example compound.

S1P3 [5] = molecular target: T2, S1P3; experiment: Method A: Receptor [35S] GTPγS Binding Assay, S1P3; type: biochemical; design: expressed in transfected cells; conditions: EDG3-Gal5-bla HEK293T cell membranes
Procedure: as §4, §5, §3

circulating lymphocytes [6] = experiment: Blood Lymphocyte Reduction Assay (BLR) in mice; type: in vivo, BALB/c mice; conditions: oral
Procedure: (§6) Blood Lymphocyte Reduction Assay (BLR) in Rodents
(§7) Lewis rats or BALB/c mice were dosed orally with test article (as a solution or suspension in the vehicle) or vehicle alone (polyethylene glycol 300, “PEG300”). Blood was drawn at 4 hr and 24 h by retro-orbital bleeding. Blood lymphocyte counts were determined on an ADVIA 120 Hematology Analyzer (Siemens Healthcare Diagnostics). The results were measured as a reduction in the percentage of circulating lymphocytes as compared to the vehicle treated group at the 4 hr and 24 hr measurement. The results represent the average results of all animals within each treatment group (n=3-4).
(§8) Compounds of the present invention were tested in the Blood Lymphocyte Reduction assay (BLR) described hereinabove and the results are shown in Table D for rats and Table E for mice.

Lewis rats = experiment: Rat Adjuvant Induced Arthritis Assay (AA); type: in vivo; conditions: for Paw Swelling (mL) on Day 21, Mean: vehicle mean 1.58
Procedure: Rat Adjuvant Induced Arthritis Assay (AA)
Male Lewis rats (150-175 g; Harlan, n=8 treatment group) were immunized at the base of the tail with 100 μl of 10 mg/ml freshly ground Mycobacterium butyricum (Difco Laboratories) in incomplete Freund's adjuvant (sigma). Animals were dosed once daily with the test article (as a solution or suspension in the vehicle) or vehicle alone (polyethylene glycol 300, “PEG300”) starting from the day of immunization. The volumes of their hind paws were measured in a water displacement plethysmometer (Ugo Basile, Italy). The baseline paw measurements were taken before onset of the disease (between day 7 to day 10). The paw measurements were then taken three times a week until the end of the study on day 20 to 21. All procedures involving animals were reviewed and approved by the Institutional Animal Care Use Committee.
Compounds of the present invention were tested in the Rat Adjuvant Induced Arthritis assay described hereinabove and the results are shown in Table F and Table G.

circulating lymphocytes [7] = experiment: Blood Lymphocyte Reduction Assay (BLR) in rats; type: in vivo, Lewis rats; conditions: oral
Procedure: as §6, §7, §8

T1 sequence (P21453 whole entry): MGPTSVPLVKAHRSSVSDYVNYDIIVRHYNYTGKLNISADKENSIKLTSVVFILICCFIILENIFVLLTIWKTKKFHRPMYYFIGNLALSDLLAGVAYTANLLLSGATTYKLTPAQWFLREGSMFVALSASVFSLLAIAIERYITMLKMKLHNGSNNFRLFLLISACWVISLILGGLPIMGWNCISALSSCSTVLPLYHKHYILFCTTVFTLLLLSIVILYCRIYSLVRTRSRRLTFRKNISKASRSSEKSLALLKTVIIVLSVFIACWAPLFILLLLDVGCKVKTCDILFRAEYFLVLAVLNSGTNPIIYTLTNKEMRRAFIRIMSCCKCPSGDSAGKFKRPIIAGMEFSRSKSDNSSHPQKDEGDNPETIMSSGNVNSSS
T2 sequence (Q99500 whole entry): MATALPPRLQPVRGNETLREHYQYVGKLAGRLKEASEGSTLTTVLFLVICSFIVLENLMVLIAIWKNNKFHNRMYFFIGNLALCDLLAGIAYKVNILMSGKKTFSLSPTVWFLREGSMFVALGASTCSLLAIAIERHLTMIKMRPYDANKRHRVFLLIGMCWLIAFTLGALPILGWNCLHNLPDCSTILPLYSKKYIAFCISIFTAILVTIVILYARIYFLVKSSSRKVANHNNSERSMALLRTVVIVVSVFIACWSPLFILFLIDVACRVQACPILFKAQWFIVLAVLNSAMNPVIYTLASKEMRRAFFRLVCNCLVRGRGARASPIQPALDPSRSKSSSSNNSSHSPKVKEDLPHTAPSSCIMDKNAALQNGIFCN

| pEC50 (S1P1 [1]) | GTPγS S1P3/S1P1 (Method B) (S1P1 [1]) | pEC50 (S1P3 [2]) | pEC50 (S1P1 [3]) | GTPγS S1P3/S1P1 (Method A) (S1P1 [3]) | pIC50 (S1P1 [4]) | pEC50 (S1P3 [5]) | Compound | further results |
| --- | --- | --- | --- | --- | --- | --- | --- | --- |
| 8.66 | 1,900 | 5.39 | 7.28 | 69 | 8.27 | 5.44 | O=C(O)C1CN(Cc2ccc(-c3noc(-c4cnn(-c5ccccc5)c4-c4cccnc4)n3)cc2)C1 [Example 15, 1-(4-(5-(1-Phenyl-5-(pyridin-3-yl)-1H-pyrazol-4-yl)-1,2,4-oxadiazol-3-yl)benzyl)azetidine-3-carboxylic acid, 2,2,2-trifluoroacetic acid salt] |  |
|  |  | 5.89 | 8.38 | 690 | 9.92 | 5.54 | CCCc1c(-c2nc(-c3ccc(CN4CC(C(=O)O)C4)cc3)no2)cnn1-c1ccccn1 [Example 6, 1-(4-(5-(5-propyl-1-(pyridin-2-yl)-1H-pyrazol-4-yl)-1,2,4-oxadiazol-3-yl)benzyl)azetidine-3-carboxylic acid] |  |
| 7.77 |  |  | 6.59 | 50 | 7.52 | 4.89 | Cc1c(-c2nc(-c3ccc(CN4CC(C(=O)O)C4)cc3)no2)cnn1-c1ccccc1 [Example 5, 1-(4-(5-(5-methyl-1-phenyl-1H-pyrazol-4-yl)-1,2,4-oxadiazol-3-yl)benzyl)azetidine-3-carboxylic acid] |  |
| 9.77 | 12,000 | 5.68 | 8.72 |  | 9.52 |  | O=C(O)C1CN(Cc2ccc(-c3noc(-c4cnn(-c5ccccc5)c4C(F)(F)F)n3)cc2)C1 [Example 2, 1-(4-(5-(1-Phenyl-5-(trifluoromethyl)-1H-pyrazol-4-yl)-1,2,4-oxadiazol-3-yl)benzyl)azetidine-3-carboxylic acid] | % reduction in lymphocytes at 4 hr. (circulating lymphocytes [6]; 0.04 mg/kg): 68%; % reduction in lymphocytes at 24 hr. (circulating lymphocytes [6]; 0.04 mg/kg): 5%; % reduction in lymphocytes at 4 hr. (circulating lymphocytes [6]; 0.2 mg/kg): 76%; % reduction in lymphocytes at 24 hr. (circulating lymphocytes [6]; 0.2 mg/kg): 64%; % reduction in lymphocytes at 4 hr. (circulating lymphocytes [6]; 1.0 mg/kg): 80%; % reduction in lymphocytes at 24 hr. (circulating lymphocytes [6]; 1.0 mg/kg): 82%; % reduction in lymphocytes at 4 hr. (circulating lymphocytes [6]; 3.0 mg/kg): 73%; % reduction in lymphocytes at 24 hr. (circulating lymphocytes [6]; 3.0 mg/kg): 89%; Paw Swelling (mL) on Day 21, Mean (Lewis rats; 0.2 mg/kg once daily): 02.12 mL; Paw Swelling (mL) on Day 21, Mean (Lewis rats; 1.0 mg/kg once daily): 0.91 mL; Paw Swelling (mL) on Day 21, Mean (Lewis rats; 3.0 mg/kg once daily): 0.19 mL; Paw Swelling (mL) on Day 21, Mean (Lewis rats; 10.0 mg/kg once daily): 0.10 mL; disease progression as measured by paw swelling (Lewis rats; Lewis rat, prophylactic oral dosing): inhibit disease progression; % reduction in lymphocytes at 4 hr. (circulating lymphocytes [7]; 0.04 mg/kg): 64%; % reduction in lymphocytes at 24 hr. (circulating lymphocytes [7]; 0.04 mg/kg): 8%; % reduction in lymphocytes at 4 hr. (circulating lymphocytes [7]; 0.2 mg/kg): 76%; % reduction in lymphocytes at 24 hr. (circulating lymphocytes [7]; 0.2 mg/kg): 55%; % reduction in lymphocytes at 4 hr. (circulating lymphocytes [7]; 1.0 mg/kg): 76%; % reduction in lymphocytes at 24 hr. (circulating lymphocytes [7]; 1.0 mg/kg): 79% |
